# Where a SMILES comes first, the peptide text is derived from it. Bridges are numbered along the chain shown (N, C = ends). [ ]: non-standard residue; d: D form. R8 = C=CCCCCCC[C@@](C)(N)C(=O)O; S5 = C=CCCC[C@](C)(N)C(=O)O
# How the values were obtained:
# [1] = system: MCF10A breast cells; test: Cell viability assay (MTT), MCF10A; type: cell-based, human
# Text: Fig. 1 Hydrocarbon stapling leads to increased EJ1 activity in comparison to HER-directed monoclonal therapies. a EJ1 sequence with PTD4 domain (underlined) corresponding to EGFR juxtamembrane domain sequence 643–663. Stabilized alpha helix (SAH) variations 1–5 beneath, with asterisks (*) indicating sites of staple. Control peptide (CP) with altered residues indicated by double underline. Stapled control (5) asterisks (*) indicate sites of staple. b Cartoon representation of EJ1 structure, with staple variation 5 highlighted. Positively charged residues indicated in blue, negatively charged residues in red. c Cartoon representation of CP structure, with staple variation highlighted. d Cell viability assay performed in MDA-MB-468 cells after 24 h comparing unstapled EJ1 versus staple variations SAH1, SAH4, and SAH5, with increasing concentrations. e Visualization of MDA-MB-468 cells untreated, treated with 10 µM EJ1, and 10 µM SAH5-EJ1 after 60 min. Scale bars represent 50 µm. f–h Cell viability assay performed in MDA-MB-468, MCF10A, or CHO cells over 3 days comparing treatment with Sapitinib (blue lines), SAH5-EJ1 (red lines), and SAH5-CP (grey lines). […] Absorbance was read at 540 nm by plate reader (uQuant, Bio-Tek Instruments). P-values were calculated from a one-way ANOVA.
# [2] = system: EGFR T790M mutated H1975 lung adenocarcinoma cells; test: Cell viability assay (MTT), H1975; type: cell-based; settings: H1975 (HER1 T790M), 10 µM, 72 h
# Description: (§1) 1000–3000 cells were plated in 96-well plates (Falcon; Corning, NY) and allowed to adhere for 24–48 h prior to therapeutic introduction. Compounds were added and incubated on cells for 3 days in serum-containing media, followed by 2 h treatment with MTT (Sigma M5655) with the resulting formazan solubilized in DMSO. Absorbance was read at 540 nm by plate reader (uQuant, Bio-Tek Instruments). P-values were calculated from a one-way ANOVA.
# Fig. 3 SAH5-EJ1 inhibits growth and prolongs survival in PDX models of lung cancer. a, b Cell viability assays performed in A549 or EGFR T790M mutated H1975 lung adenocarcinoma cells over 3 days comparing treatment with Sapitinib (blue lines) to SAH5-EJ1 (red lines). Solid lines represent 24 h; dashed lines represent 72 h. Data shown represent mean ± percent difference of assays performed in quadruplicate. c Reduction in tumor burden in Erlotinib-resistant lung cancer PDX mouse model TM00784 with various doses of intravenous SAH5-EJ1. Control represents water as a vehicle control. *p < 0.05 (Control vs 1 µg/g); **p < 0.01 (Control vs 1 µg/g and vs 10 µg/g). d Kaplan–Meier curve of lung PDX mouse model treated with control (blue line) or either 1 or 10 µg/g SAH5-EJ1 (green line and red line, respectively). Data shown represent mean. N = 6 for all groups
# [3] = system: SUM149 inflammatory breast cancer cells; type: cell-based; settings: SUM149, 10 µM, 3 days
# Description: as §1
# Fig. 4 SAH5-EJ1 effectively treats models of basal and inflammatory breast cancers while increasing survival. a Changes in tumor burden in breast cancer PDX mouse model TM01278 with various concentrations of intravenous SAH5-EJ1. Control represents water as a vehicle control. *p < 0.05 (Control vs 1 µg/g); **p < 0.01 (Control vs 1 µg/g and vs 10 µg/g). N = 6 for each condition. b Kaplan–Meier curve of breast PDX mouse model treated with control (blue) or either 1 or 10 µg/g SAH5-EJ1 (green and red, respectively) (red asterisks indicate time point at which mice could no longer receive injections due to site toxicity). Data shown represent mean. N = 6 for all groups. c Cell viability assay performed in SUM149 cells over 3 days comparing treatment with Sapitinib (blue) to SAH5-EJ1 (red) and SAH5-CP (grey). Solid lines represent 24 h; dashed lines represent 72 h. Data shown represent mean ± percent difference of assays performed in triplicate. d Kaplan–Meier curve of inflammatory breast cancer SUM149-injected mouse model treated with injected control (water) (blue) or either 0.5 or 5 µg/g SAH5-EJ1 (green and red, respectively). Data shown represent mean. N = 8 for all groups. e Changes in tumor burden in SUM149-generated tumors with various doses of SAH5-EJ1. Control represents water (blue). Arrow indicates transition from intravenous (IV) SAH5-EJ1 injections to intraperitoneal (IP) on day 66. **p < 0.01 (Control vs 0.5 µg/g and vs 5 µg/g). Data shown represent mean ± standard deviation. N = 8 for all groups. f Images of mouse tumors taken on Day 116. Arrowheads indicate tumor site. Representative images selected. […]
# [4] = system: grade 3 invasive ductal breast carcinoma PDX TM01278; test: Breast cancer PDX mouse model TM01278; type: in vivo
# Text: The following PDX mouse models were generated by Jackson Labs (Sacramento, CA): Breast TM01278; Grade 3 invasive ductal carcinoma, primary malignancy; EGFR inactivating R521K mutation; ERBB3 G1288A mutation in kinase domain with unknown effects on activity; increased EGFR/ERBB2/ERBB3. Lung TM00784; Grade 3 lung adenocarcinoma, primary malignancy; EGFR activating L858R mutation; increased EGFR, decreased ERBB2/ERBB3/ERBB4. All animals were maintained as outlined by University of Arizona Institutional Animal Care and Use Committee (IACUC) by the Experimental Mouse Shared Resource (EMSR).
# Fig. 4 SAH5-EJ1 effectively treats models of basal and inflammatory breast cancers while increasing survival. a Changes in tumor burden in breast cancer PDX mouse model TM01278 with various concentrations of intravenous SAH5-EJ1. Control represents water as a vehicle control. *p < 0.05 (Control vs 1 µg/g); **p < 0.01 (Control vs 1 µg/g and vs 10 µg/g). N = 6 for each condition. b Kaplan–Meier curve of breast PDX mouse model treated with control (blue) or either 1 or 10 µg/g SAH5-EJ1 (green and red, respectively) (red asterisks indicate time point at which mice could no longer receive injections due to site toxicity). Data shown represent mean. N = 6 for all groups. c Cell viability assay performed in SUM149 cells over 3 days comparing treatment with Sapitinib (blue) to SAH5-EJ1 (red) and SAH5-CP (grey). […]
smiles,measurement,setting,value
CC[C@H](C)[C@H](NC(=O)[C@H](Cc1c[nH]cn1)NC(=O)[C@H](CCCNC(=N)N)NC(=O)[C@H](CCCNC(=N)N)NC(=O)[C@H](CCCNC(=N)N)NC(=O)[C@H](CCSC)NC(=O)[C@H](Cc1ccccc1)NC(=O)[C@H](C)NC(=O)[C@H](CCCNC(=N)N)NC(=O)[C@H](C)NC(=O)[C@H](CCC(N)=O)NC(=O)[C@H](CCCNC(=N)N)NC(=O)[C@H](C)NC(=O)[C@H](C)NC(=O)[C@H](C)NC(=O)[C@H](CCCNC(=N)N)NC(=O)[C@H](C)NC(=O)[C@@H](N)Cc1ccc(O)cc1)C(=O)N[C@H](C(=O)N[C@@H](CCCNC(=N)N)C(=O)N[C@@H](CCCCN)C(=O)N[C@@H](CCCNC(=N)N)C(=O)N[C@]1(C)CCCCCCC=CCCC[C@@](C)(C(=O)N[C@@H](CCCNC(=N)N)C(=O)N[C@@H](CCC(=O)O)C(N)=O)NC(=O)[C@H](CCC(N)=O)NC(=O)[C@H](CC(C)C)NC(=O)[C@H](CC(C)C)NC(=O)[C@H](CCCNC(=N)N)NC(=O)[C@H](CCCNC(=N)N)NC(=O)[C@H](CC(C)C)NC1=O)C(C)C [SAH5-EJ1] (H-YARAAARQARAFMRRRHIVRKR[R8]LRRLLQ[S5]RE-NH2; staple 23-30),concentration at which complete cell death was observed,[1],10 µM
same,cell death,[2],100%
same,cell viability,[3],zero
same,increase in survival,"[4]; 1 µg/g IV vs control, N = 6",2.5 fold
same,time on study at which all remaining mice were sacrificed due to toxicity at the injection site,[4]; 10 µg/g IV,41 days

# Source: publication PMC6582486, “Stapled EGFR peptide reduces inflammatory breast cancer and inhibits additional HER-driven models of cancer” (Journal of Translational Medicine, 2019)
